# Results published in PMC8279013 (Toxicology letters, 2020).
# pIC50: −log10 of the molar value.
# Molecular target: T1, pregnane X receptor (PXR) (Homo sapiens, UniProt O75469)
# T1 sequence (O75469 1-434): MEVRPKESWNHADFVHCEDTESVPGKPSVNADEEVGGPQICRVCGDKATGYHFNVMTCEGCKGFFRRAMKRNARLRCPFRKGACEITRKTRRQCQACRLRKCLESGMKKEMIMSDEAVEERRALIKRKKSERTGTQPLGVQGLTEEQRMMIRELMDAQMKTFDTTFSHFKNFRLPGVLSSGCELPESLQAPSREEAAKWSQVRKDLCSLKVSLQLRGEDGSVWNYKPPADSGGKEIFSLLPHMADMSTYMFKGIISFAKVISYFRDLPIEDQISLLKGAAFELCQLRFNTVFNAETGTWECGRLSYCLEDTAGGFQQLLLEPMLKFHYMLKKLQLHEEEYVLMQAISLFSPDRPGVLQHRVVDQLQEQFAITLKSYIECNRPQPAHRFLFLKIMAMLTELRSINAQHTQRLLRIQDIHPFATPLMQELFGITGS
# Test: PXR element luciferase reporter, RIF-stimulated, stable hPXR-HRE cells
# Type: cell-based
smiles,measurement,value
CC(=O)N1CCN(c2ccc(OC[C@H]3CO[C@](Cn4ccnc4)(c4ccc(Cl)cc4Cl)O3)cc2)CC1 (racemic) [ketoconazole],pIC50,4.65
